Laboratory results: US5663207A, “Gem-dichlorocyclopropanes as antitumor agents” (priority 1995, dated 1997)
“Also recorded” adds a separate entry of the source. Like-named read-outs stand apart in the source and are kept apart here.

Legend:
[1] = Stability observed during isolation and storage; assay type: physicochemical; conditions: on concentration, drying or storage
Procedure: The structures of all compounds were supported by their proton NMR spectra, which were measured on either a Varian EM-360A or XL-300 spectrometer. The spectra are reported in parts per million in CDCl3 unless otherwise noted, with tetramethysilane as the internal standard. Infrared spectra were obtained from KBr pellets on a Beckman Acculab 1 spectrometer and were consistent with the assigned structures. Silica gel (for example, obtained commercially from J. T. Baker) of approximately 40 μm diameter was used for flash chromatography (STILL, W. C., KAHN, M. AND MITRA, A. (1978), "Rapid chromatographic technique for preparative separations with moderate resolutions", Journal of Organic Chemistry, 43, 2923), which was performed at 5-10 psi. Petroleum ether was of bp 30°-60° C. When necessary, solvents or reagents were dried by appropriate methods. Evaporations were carried out in vacuo on a rotary evaporator or under a stream of dry N2. Melting points were taken on a Thomas-Hoover capillary melting point apparatus and are uncorrected. Reaction progress and product purity were monitored by analytical TLC on strips of Eastman Kodak plastic-backed SiO2 60 F254 or Al2 O3 F254. Developed strips were viewed under light of 254 and 365 nm wavelengths. Elemental analyses were done by Midwest Microlab Ltd., Indianapolis, IN. Acceptable elemental results are denoted in Table I by the formula, followed by the elements analyzed. Melting points and yields of all compounds were based on pure samples unless otherwise noted, are listed in Table I. Para-Bromoanisole, p-methoxydeoxybenzoin, anisole, p-methoxybenzaldehyde, and 2,3-bis-(p-methoxyphenyl)-acrylic acid and trans-p-methoxystilbene (the olefin), were purchased from Aldrich & Co. The cyclopropanes 1,1-dichloro-cis-2-(p-hydroxyphenyl)-3-phenylcyclopropane (9), and its trans isomer 1,1-dichloro-trans-2-(p-Hydroxyphenyl)-3phenylcyclopropane (17) were prepared from Compounds 8 & 16, respectively. […] Tamoxifen was obtained from Stuart Pharmaceuticals, Division of ICI Americas, Inc., Wilmington, Del. 19897. MER 25 was obtained from the Merrell Dow Research Institute, Division of Merrell Dow Pharmaceuticals, Inc., Cincinnati, Ohio. Protein Assay Reagent, Pierce Chemical Co., Rockford, Ill. 61105. Diethylstilbestrol, β-estradiol, EDTA, DL-dithiothreitol, Sodium molybdate, and Tris (hydroxymethyl) aminomethane hydrochloride were purchased from Sigma Chemical Co., St. Louis, Mo. 63178.
Essentially, the intermediate olefin acids (Compounds 6 & 12) were obtained from a mixed Perkin and Knoevenagel-type condensation involving the reaction of p-methoxyaldehyde (Compound 4) with phenylacetic acid (Compound 5), or p-methoxyphenylacetic acid (Compound 11) in triethylamine and acetic anhydride. To prepare cis-p-methoxystilbene (Compound 7) or bis-(p-methoxy)-cis-stilbene (Compound 13). Decarboxylation of 6 & 12 with quinoline (prevents isomerizations; KLEIN, J. AND MEYER, A. Y. (1964), "The decarboxylation of α-cyano-and α-carboxycinnamic acids", Journal of Organic Chemistry, 29, 1038), and copper chromite at elevated temperature provided 7 & 13. High temperature during distillation caused 8% isomerization to the trans-isomer (15), which was isolated by column chromatography. Dichlorocarbene generation used the catalytic phase transfer method (21, 37) (used extensively in our laboratory) of 50% aqueous solution of NaOH, CHCl3 and benzyltriethylammonium chloride (TEBA) as the anion transfer agent. […]

[2] = tested on: MCF-7 human breast cancer cells; experiment: In vitro MCF-7 human breast cancer cell growth inhibition assay; assay type: cell-based; conditions: for inhibition at 1 µM: Homo sapiens
From the text: The biological evaluation of the test compounds consisted of the in vitro rat cytosolic estradiol receptor binding assay, the in vivo immature mouse uterotrophic (estrogenic) and antiuterotrophic (antiestrogenic) assays, and the in vitro suppression of the proliferation of the ER positive MCF-7 human breast cancer cell line. Estradiol (pure agonist), TAM (agonist in mice and antagonist in MCF-7), MER 25 (pure antagonist) and Analog II (antagonist in mice) were used in the assay as standards.
MCF-7 (estrogen-receptor positive) human breast cancer cells (obtained from the Michigan Cancer Foundation, Detroit, Mich.) were grown at 37° C. in 75 cm^2 tissue culture (T-75) flasks, as monolayer cultures in RPMI 1640 phenol red-free media supplemented with 2 mM L-glutamine, gentamicin (50 μg/mL), penicillin (100 units/mL), streptomycin (100 μg/mL ) and calf serum (5%). Cultures were grown in an incubator 37° C. in a humid 5% CO2 atmosphere, and fed on alternate days. Expotential growth was maintained by subculturing at eight day intervals when the cells per T-75 flask reached 10 to 12×10^6 cells. Cells were trypsinized, washed and plated in multiwell plates at a density of 5×10^4 cells/well in 3 mL of RPMI 1640 media. The cells were allowed to attach and were in logarithmic growth when the test compounds were added. The test compounds (10^-6 M) in the presence or absence of a 10-fold lower dose of estradiol were dissolved in a polyethylene glycol 400: ethanol (55:45) mixture and added in the culture media in duplicate. Control samples received vehicle alone at the same concentration used in the treatment groups. The final concentration of the vehicle mixture was 0.1% of the incubation media. Cell growth was measured on alternate days using the hemocytometric trypan blue exclusion method. Percent inhibition of MCF-7 cells was calculated as the ratio of the control mean cell count per well minus the treatment group mean cell count per well to the control mean cell count per well, multiplied by 100.
^b % MCF7 inhibition was calculated as follows: […]
Thirteen compounds, Analog II, TAM, and MER 25 were tested for their antiproliferative activity in the MCF-7 human breast cancer cell line (Table II). Compounds were tested at a concentration of 10^-6 M in the presence or absence of 10^-7 M estradiol to assess their ability to alter the growth of the calls (Table II). The 10^-6 M concentration was selected since it was reported that the inhibition of the MCF-7 cells by antiestrogens and TAM occurred either at that concentration or less, and were both selective and estrogen receptor specific. Concentrations of antiestrogens greater than 5×10^-6 M were reported to have nonspecific cytotoxic effects (BRIAND, P. AND […], A. E. (1984), "Effect of estrogen and antiestrogen on the human breast cancer cell line MCF-7 adapted to growth at low serum concentration", Cancer Research, 44, 1114).

Row | Compound | stability (in words) [1] | effect on MCF-7 cell growth (in words) ([2]; 10^-6 M) | inhibition at 1 µM ([2]; MCF7, 10^-6 M, versus control mean cell count, read-out: MCF-7 Inhibition) [%] | reversal of growth inhibition by estradiol (in words) ([2]; 10^-7 M estradiol) | inhibition at 1 µM ([2]; MCF7, read-out: MCF-7 Inhibition) [%] | effect on estradiol-induced cell growth (in words) ([2]; with 10^-7 M estradiol)
1 | CC(=O)Oc1ccc([C@H]2[C@@H](c3ccccc3)C2(Cl)Cl)cc1 (relative stereo) [Compound 10, 1,1-Dichloro-cis-2-(p-acetoxyphenyl)-3-phenylcyclopropane] | stable light-yellow oil at 0 °C | inhibited cell growth | 32 |  |  | 
2 | Oc1ccc(C2(c3ccc(O)cc3)C(Cl)(Cl)C23CCCCC3)cc1 [Compound 30, 1,1-Dichloro-2,2-bis-(p-hydroxyphenyl)-spiro[2.5]octane] | gradually turned to light-orange; also recorded: underwent a gradual color change | active inhibitors of cell growth |  | reversed by 10^-7 M estradiol | 21.3 | enhanced estradiol-induced cell growth above the control
